{"source": "patent US12077503B2", "about": "“Substituted cyclic amides and their use as herbicides” (FMC CORPORATION, priority 2015, dated 2024)", "type_in_all_cases": "in vivo", "key": {"Kochia (Kochia scoparia) [1]": {"test_system": "Kochia (Kochia scoparia)", "assay": "Test A preemergence", "details": "Bassia scoparia, pre-emergence, 240 h, 0 to 100 scale where 0 is no effect and 100 is complete control, read-out: Kochia plant response rating", "procedure,_shortened": "(§1)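 Visual injury, scored on a 0–100 scale relative to untreated controls, was recorded about 10 d after application. Treatments were a preemergence soil spray over planted seeds or a postemergence spray on plants at the one- to two-leaf stage, 2 to 10 cm tall, all in loam soil–sand blend in the greenhouse.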"}, "[2]": {"test_system": "barnyardgrass (Echinochloa crus-galli)", "assay": "Test A preemergence", "details": "Echinochloa crus-galli, pre-emergence, 240 h, 0 to 100 scale where 0 is no effect and 100 is complete control, read-out: Barnyardgrass plant response rating", "procedure,_shortened": "as §1"}, "[3]": {"test_system": "giant foxtail (Setaria faberii)", "assay": "Test A preemergence", "details": "Setaria faberi, pre-emergence, 240 h, 0 to 100 scale where 0 is no effect and 100 is complete control, read-out: Foxtail, Giant plant response rating", "procedure,_shortened": "as §1"}, "[4]": {"test_system": "pigweed (Amaranthus retroflexus)", "assay": "Test A preemergence", "details": "Amaranthus retroflexus, pre-emergence, 240 h, 0 to 100 scale where 0 is no effect and 100 is complete control, read-out: Pigweed plant response rating"}, "[5]": {"test_system": "ragweed (common ragweed, Ambrosia elatior)", "assay": "Test A preemergence", "details": "Ambrosia artemisiifolia, pre-emergence, 240 h, 0 to 100 scale where 0 is no effect and 100 is complete control, read-out: Ragweed plant response rating", "procedure,_shortened": "as §1"}, "[6]": {"test_system": "ryegrass, Italian (Italian ryegrass, Lolium multiflorum)", "assay": "Test A preemergence", "details": "Lolium multiflorum, pre-emergence, 240 h, 0 to 100 scale where 0 is no effect and 100 is complete control, read-out: Ryegrass, Italian plant response rating", "procedure,_shortened": "as §1"}, "[7]": {"test_system": "Galium (catchweed bedstraw, Galium aparine)", "assay": "Test A postemergence", "details": "Galium, post-emergence, 240 h", "procedure,_shortened": "as §1"}, "Kochia (Kochia scoparia) [8]": {"test_system": "Kochia (Kochia scoparia)", "assay": "Test A postemergence", "details": "Bassia scoparia, post-emergence, 240 h", "procedure,_shortened": "as §1"}, "[9]": {"test_system": "barnyardgrass (Echinochloa crus-galli)", "assay": "Test A postemergence", "details": "Echinochloa crus-galli, post-emergence, 240 h", "procedure,_shortened": "as §1"}, "[10]": {"test_system": "blackgrass (Alopecurus myosuroides)", "assay": "Test A postemergence", "details": "Alopecurus myosuroides, post-emergence, 240 h", "procedure,_shortened": "as §1"}, "corn (Zea mays)": {"test_system": "corn (Zea mays)", "assay": "Test A postemergence", "details": "Zea mays, post-emergence, 240 h", "procedure,_shortened": "as §1"}, "[11]": {"test_system": "giant foxtail (Setaria faberii)", "assay": "Test A postemergence", "details": "Setaria faberi, post-emergence, 240 h", "procedure,_shortened": "as §1"}, "[12]": {"test_system": "pigweed (Amaranthus retroflexus)", "assay": "Test A postemergence", "details": "Amaranthus retroflexus, post-emergence, 240 h, 125 g ai/ha, postemergence, visual injury vs untreated controls after approx. 10 d; 0 = no effect, 100 = complete control; read-out: Pigweed plant response rating (0 to 100 scale)", "procedure,_shortened": "as §1"}, "[13]": {"test_system": "ragweed (common ragweed, Ambrosia elatior)", "assay": "Test A postemergence", "details": "Ambrosia artemisiifolia, post-emergence, 240 h, 125 g ai/ha, postemergence, visual injury vs untreated controls after approx. 10 d; 0 = no effect, 100 = complete control; read-out: Ragweed plant response rating (0 to 100 scale)", "procedure,_shortened": "as §1"}, "[14]": {"test_system": "ryegrass, Italian (Italian ryegrass, Lolium multiflorum)", "assay": "Test A postemergence", "details": "Lolium multiflorum, post-emergence, 240 h, 125 g ai/ha, postemergence, visual injury vs untreated controls after approx. 10 d; 0 = no effect, 100 = complete control; read-out: Ryegrass, Italian plant response rating (0 to 100 scale)", "procedure,_shortened": "as §1"}, "[15]": {"test_system": "wheat (Triticum aestivum)", "assay": "Test A postemergence", "details": "Triticum aestivum, post-emergence, 240 h, 125 g ai/ha, postemergence, visual injury vs untreated controls after approx. 10 d; 0 = no effect, 100 = complete control; read-out: Wheat plant response rating (0 to 100 scale)", "procedure,_shortened": "as §1"}, "[16]": {"test_system": "barnyardgrass (Echinochloa crus-galli)", "assay": "Test B flooded paddy test", "details": "Echinochloa crus-galli, 250 g ai/ha, Flood; 0 to 100 scale where 0 is no effect and 100 is complete control; read-out: Barnyardgrass plant response rating", "procedure,_shortened": "(§2)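 Compound goes directly into floodwater once pots are flooded 3 cm above soil, targeting plants at two leaves; the water depth is then held for the test duration. Plants sit 13–15 d in a greenhouse and are rated visually, 100 denoting complete control.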"}, "[17]": {"test_system": "ducksalad (Heteranthera limosa)", "assay": "Test B flooded paddy test", "details": "Heteranthera limosa, 250 g ai/ha, Flood; 0 to 100 scale where 0 is no effect and 100 is complete control; read-out: Ducksalad plant response rating", "procedure,_shortened": "as §2"}, "rice (Oryra sativa)": {"test_system": "rice (Oryra sativa)", "assay": "Test B flooded paddy test", "details": "Oryza sativa, 250 g ai/ha, Flood; 0 to 100 scale where 0 is no effect and 100 is complete control; read-out: Rice plant response rating", "procedure,_shortened": "as §2"}, "[18]": {"test_system": "sedge, umbrella (small-flower umbrella sedge, Cyperus difformis)", "assay": "Test B flooded paddy test", "details": "Cyperus difformis, 250 g ai/ha, Flood; 0 to 100 scale where 0 is no effect and 100 is complete control; read-out: Sedge, Umbrella plant response rating", "procedure,_shortened": "as §2"}, "[19]": {"details": "125 g ai/ha, preemergence, approx. 10 d"}}, "data": [{"smiles": "CN1CC[C@H](c2ccc3c(c2)OC(F)(F)O3)[C@@H](C(=O)Nc2cccc(Cl)c2F)C1=O", "note": "[Compound 1174]", "values": [{"measurement": "pest or weed control at 31 g/ha", "setting": "Kochia (Kochia scoparia) [1]; 31 g ai/ha, Preemergence", "result": 0, "unit": "%"}, {"measurement": "pest or weed control at 125 g/ha", "setting": "Kochia (Kochia scoparia) [1]; [19]", "result": 0, "unit": "%"}, {"measurement": "pest or weed control at 31 g/ha", "setting": "[2]; 31 g ai/ha, Preemergence", "result": 80, "unit": "%"}, {"measurement": "pest or weed control at 125 g/ha", "setting": "[2]; [19]", "result": 100, "unit": "%"}, {"measurement": "pest or weed control at 31 g/ha", "setting": "[3]; 31 g ai/ha, Preemergence", "result": 80, "unit": "%"}, {"measurement": "pest or weed control at 125 g/ha", "setting": "[3]; [19]", "result": 90, "unit": "%"}, {"measurement": "pest or weed control at 31 g/ha", "setting": "[4]; 31 g ai/ha, Preemergence", "result": 0, "unit": "%"}, {"measurement": "pest or weed control at 125 g/ha", "setting": "[4]; [19]", "result": 0, "unit": "%"}, {"measurement": "pest or weed control at 31 g/ha", "setting": "[5]; 31 g ai/ha, Preemergence", "result": 0, "unit": "%"}, {"measurement": "pest or weed control at 125 g/ha", "setting": "[5]; [19]", "result": 0, "unit": "%"}, {"measurement": "pest or weed control at 31 g/ha", "setting": "[6]; 31 g ai/ha, Preemergence", "result": 0, "unit": "%"}, {"measurement": "pest or weed control at 125 g/ha", "setting": "[6]; [19]", "result": 40, "unit": "%"}, {"measurement": "pest or weed control at 125 g/ha", "setting": "[7]; 125 g ai/ha, postemergence, visual injury vs untreated controls after approx. 10 d, 0 = no effect, 100 = complete control, read-out: Galium plant response rating (0 to 100 scale)", "result": 0, "unit": "%"}, {"measurement": "pest or weed control at 31 g/ha", "setting": "[7]; Postemergence, 31 g ai/ha, visual injury after approx. 10 d, 0 to 100 scale, 0 no effect, 100 complete control, read-out: Plant response rating, Galium", "result": 0, "unit": "%"}, {"measurement": "pest or weed control at 125 g/ha", "setting": "Kochia (Kochia scoparia) [8]; 125 g ai/ha, postemergence, visual injury vs untreated controls after approx. 10 d, 0 = no effect, 100 = complete control, read-out: Kochia plant response rating (0 to 100 scale)", "result": 0, "unit": "%"}, {"measurement": "pest or weed control at 31 g/ha", "setting": "Kochia (Kochia scoparia) [8]; Postemergence, 31 g ai/ha, visual injury after approx. 10 d, 0 to 100 scale, 0 no effect, 100 complete control, read-out: Plant response rating, Kochia", "result": 0, "unit": "%"}, {"measurement": "pest or weed control at 125 g/ha", "setting": "[9]; 125 g ai/ha, postemergence, visual injury vs untreated controls after approx. 10 d, 0 = no effect, 100 = complete control, read-out: Barnyardgrass plant response rating (0 to 100 scale)", "result": 70, "unit": "%"}, {"measurement": "pest or weed control at 31 g/ha", "setting": "[9]; Postemergence, 31 g ai/ha, visual injury after approx. 10 d, 0 to 100 scale, 0 no effect, 100 complete control, read-out: Plant response rating, Barnyardgrass", "result": 70, "unit": "%"}, {"measurement": "pest or weed control at 125 g/ha", "setting": "[10]; 125 g ai/ha, postemergence, visual injury vs untreated controls after approx. 10 d, 0 = no effect, 100 = complete control, read-out: Blackgrass plant response rating (0 to 100 scale)", "result": 0, "unit": "%"}, {"measurement": "pest or weed control at 31 g/ha", "setting": "[10]; Postemergence, 31 g ai/ha, visual injury after approx. 10 d, 0 to 100 scale, 0 no effect, 100 complete control, read-out: Plant response rating, Blackgrass", "result": 0, "unit": "%"}, {"measurement": "plant injury at 125 g/ha", "setting": "corn (Zea mays); 125 g ai/ha, postemergence, visual injury vs untreated controls after approx. 10 d, 0 = no effect, 100 = complete control, read-out: Corn plant response rating (0 to 100 scale)", "result": 50, "unit": "%"}, {"measurement": "Corn plant response rating (crop injury, 0 = no effect, 100 = complete kill) at 31 g/ha", "setting": "corn (Zea mays); Postemergence, 31 g ai/ha, visual injury after approx. 10 d, 0 to 100 scale, 0 no effect, 100 complete control", "result": 0, "unit": "%"}, {"measurement": "pest or weed control at 125 g/ha", "setting": "[11]; 125 g ai/ha, postemergence, visual injury vs untreated controls after approx. 10 d, 0 = no effect, 100 = complete control, read-out: Foxtail, Giant plant response rating (0 to 100 scale)", "result": 80, "unit": "%"}, {"measurement": "pest or weed control at 31 g/ha", "setting": "[11]; Postemergence, 31 g ai/ha, visual injury after approx. 10 d, 0 to 100 scale, 0 no effect, 100 complete control, read-out: Plant response rating, Foxtail, Giant", "result": 40, "unit": "%"}, {"measurement": "pest or weed control at 125 g/ha", "setting": "[12]", "result": 0, "unit": "%"}, {"measurement": "pest or weed control at 125 g/ha", "setting": "[13]", "result": 0, "unit": "%"}, {"measurement": "pest or weed control at 125 g/ha", "setting": "[14]", "result": 0, "unit": "%"}, {"measurement": "plant injury at 125 g/ha", "setting": "[15]", "result": 30, "unit": "%"}, {"measurement": "pest or weed control at 250 g/ha", "setting": "[16]", "result": 70, "unit": "%"}, {"measurement": "pest or weed control at 250 g/ha", "setting": "[17]", "result": 90, "unit": "%"}, {"measurement": "pest or weed control at 250 g/ha", "setting": "rice (Oryra sativa)", "result": 20, "unit": "%"}, {"measurement": "pest or weed control at 250 g/ha", "setting": "[18]", "result": 0, "unit": "%"}]}]}
